Results on 2 compounds are retold here after ChEMBL document CHEMBL4630901 (2021).

The target of experiment [1] is Histamine H3 receptor (Homo sapiens) (UniProt Q9Y5N1). The note with it: Compound concentration 10.0 uM.
In experiment [2] the target is Sigma intracellular receptor 2 (Homo sapiens, UniProt Q5BJF2). Put plainly: GPCRScan assay: inhibition of Sigma 2. The arrangement: radioligand conc. used [nm] 5.0, parental cells HEKT.
The target of experiment [3] is Adenosine Transporter (Cavia porcellus) (UniProt H0V4R7+H0UUG1+H0V3Z5). Briefly: Inhibition of Transporter, Adenosine at compound concentration of 10.0 uM in the Eurofins-Panlabs radioligand binding assay (Eurofins_assay_202000). The experiment is classed as protein assay. The arrangement: ligand concentration 0.5 nM, non-specific ligand with concentration 5 uM Nitrobenzylthioinosine, incubation time 30 min, incubation temperature 25 C. The note with it: Compound concentration 10.0 uM.

Experiment [4] addresses T1, Prostaglandin E2 receptor EP3 subtype (Homo sapiens) (UniProt P43115).
T1 sequence (whole entry): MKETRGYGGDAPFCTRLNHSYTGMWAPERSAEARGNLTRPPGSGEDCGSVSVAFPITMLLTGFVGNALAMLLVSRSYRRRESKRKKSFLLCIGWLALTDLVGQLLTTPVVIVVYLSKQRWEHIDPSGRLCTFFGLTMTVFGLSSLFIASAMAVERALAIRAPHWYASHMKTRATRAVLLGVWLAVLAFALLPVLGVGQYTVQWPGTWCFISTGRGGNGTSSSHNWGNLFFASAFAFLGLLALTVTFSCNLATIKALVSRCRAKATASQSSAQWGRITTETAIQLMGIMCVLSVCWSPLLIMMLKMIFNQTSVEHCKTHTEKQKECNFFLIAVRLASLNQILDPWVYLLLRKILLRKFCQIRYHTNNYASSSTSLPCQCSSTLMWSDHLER
Briefly: Prostanoid EP3 Eurofins-Panlabs radioligand binding assay. On the set-up: ligand concentration 0.5 nM.

The target in experiment [5] is Glutamate NMDA receptor (Rattus norvegicus) (UniProt P35439+Q00959+Q00960+Q00961+Q62645+Q8VHN2+Q9R1M7). The note with it: Compound concentration 10.0 uM.
Experiment [6] has as its target 5-hydroxytryptamine receptor 2B (Homo sapiens) (UniProt P41595). The note with it: Compound concentration 10.0 uM.
The target in experiment [7] is Estrogen receptor (Homo sapiens) (UniProt P03372). The note with it: Compound concentration 10.0 uM.
Chain of Estrogen receptor (Homo sapiens) (P03372 whole entry): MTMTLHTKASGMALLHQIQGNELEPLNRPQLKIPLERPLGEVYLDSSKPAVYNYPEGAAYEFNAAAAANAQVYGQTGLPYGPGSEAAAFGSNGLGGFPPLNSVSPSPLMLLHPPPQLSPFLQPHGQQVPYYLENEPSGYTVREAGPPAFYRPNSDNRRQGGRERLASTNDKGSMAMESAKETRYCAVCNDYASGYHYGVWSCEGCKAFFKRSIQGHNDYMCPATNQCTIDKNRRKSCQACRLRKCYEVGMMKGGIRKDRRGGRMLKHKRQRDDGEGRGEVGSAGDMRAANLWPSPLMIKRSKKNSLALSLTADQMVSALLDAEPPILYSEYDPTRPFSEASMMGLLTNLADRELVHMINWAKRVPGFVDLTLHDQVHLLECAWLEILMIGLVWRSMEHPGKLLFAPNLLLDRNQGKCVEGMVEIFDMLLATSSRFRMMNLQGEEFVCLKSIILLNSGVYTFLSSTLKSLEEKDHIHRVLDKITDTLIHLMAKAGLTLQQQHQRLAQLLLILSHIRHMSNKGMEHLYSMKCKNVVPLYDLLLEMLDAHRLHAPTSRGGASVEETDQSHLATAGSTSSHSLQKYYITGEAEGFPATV
The target of experiment [8] is Cannabinoid receptor 1 (Homo sapiens) (UniProt P21554). The note with it: Compound concentration 10.0 uM.
Chain of Cannabinoid receptor 1 (Homo sapiens) (P21554 whole entry): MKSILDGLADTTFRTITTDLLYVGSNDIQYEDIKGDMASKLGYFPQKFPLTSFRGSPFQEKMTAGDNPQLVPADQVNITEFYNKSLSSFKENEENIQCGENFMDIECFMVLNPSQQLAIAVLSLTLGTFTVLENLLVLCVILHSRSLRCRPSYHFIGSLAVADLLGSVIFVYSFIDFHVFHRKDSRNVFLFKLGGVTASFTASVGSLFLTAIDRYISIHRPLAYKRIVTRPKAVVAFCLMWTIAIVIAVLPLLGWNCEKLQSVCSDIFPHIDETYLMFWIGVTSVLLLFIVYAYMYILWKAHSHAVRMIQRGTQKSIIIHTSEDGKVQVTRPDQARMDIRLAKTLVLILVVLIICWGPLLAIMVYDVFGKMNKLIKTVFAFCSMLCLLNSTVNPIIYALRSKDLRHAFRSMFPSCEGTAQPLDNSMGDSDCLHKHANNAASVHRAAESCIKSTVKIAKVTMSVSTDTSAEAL
Experiment [9] concerns the target T2, Prostaglandin D2 receptor (Homo sapiens) (UniProt Q13258).
T2 sequence (whole entry): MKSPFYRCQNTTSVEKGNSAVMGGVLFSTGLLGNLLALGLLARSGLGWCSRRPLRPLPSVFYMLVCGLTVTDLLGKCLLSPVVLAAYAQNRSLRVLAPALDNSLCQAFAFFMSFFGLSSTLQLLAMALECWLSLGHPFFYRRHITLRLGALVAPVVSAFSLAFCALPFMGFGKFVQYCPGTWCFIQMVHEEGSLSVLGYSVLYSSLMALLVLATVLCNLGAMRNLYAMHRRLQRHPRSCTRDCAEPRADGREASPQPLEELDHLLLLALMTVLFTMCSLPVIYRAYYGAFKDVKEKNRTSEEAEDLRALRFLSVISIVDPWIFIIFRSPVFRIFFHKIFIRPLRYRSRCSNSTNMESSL
Put plainly: Prostanoid DP Eurofins-Panlabs radioligand binding assay. On the set-up: ligand concentration 2 nM.

The target in experiment [10] is Prostacyclin receptor (Homo sapiens) (UniProt P43119). Put plainly: IP (PGI2) Eurofins-Panlabs radioligand binding assay. On the set-up: ligand concentration 6 nM.
Chain of Prostacyclin receptor (Homo sapiens) (P43119 whole entry): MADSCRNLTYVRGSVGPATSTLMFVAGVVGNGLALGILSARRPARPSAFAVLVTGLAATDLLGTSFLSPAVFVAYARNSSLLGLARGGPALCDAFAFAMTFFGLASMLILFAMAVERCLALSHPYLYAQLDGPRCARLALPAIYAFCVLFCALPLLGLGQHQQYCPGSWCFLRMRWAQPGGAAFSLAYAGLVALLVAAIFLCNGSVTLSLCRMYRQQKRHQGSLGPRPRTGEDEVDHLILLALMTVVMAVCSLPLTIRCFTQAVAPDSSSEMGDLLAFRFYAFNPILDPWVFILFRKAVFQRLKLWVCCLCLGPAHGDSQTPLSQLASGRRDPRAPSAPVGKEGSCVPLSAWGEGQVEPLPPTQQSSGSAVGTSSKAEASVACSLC
Experiment [11] deals with Sodium-dependent dopamine transporter (Homo sapiens) (UniProt Q01959). The note with it: Compound concentration 10.0 uM.
Chain of Sodium-dependent dopamine transporter (Homo sapiens) (Q01959 whole entry): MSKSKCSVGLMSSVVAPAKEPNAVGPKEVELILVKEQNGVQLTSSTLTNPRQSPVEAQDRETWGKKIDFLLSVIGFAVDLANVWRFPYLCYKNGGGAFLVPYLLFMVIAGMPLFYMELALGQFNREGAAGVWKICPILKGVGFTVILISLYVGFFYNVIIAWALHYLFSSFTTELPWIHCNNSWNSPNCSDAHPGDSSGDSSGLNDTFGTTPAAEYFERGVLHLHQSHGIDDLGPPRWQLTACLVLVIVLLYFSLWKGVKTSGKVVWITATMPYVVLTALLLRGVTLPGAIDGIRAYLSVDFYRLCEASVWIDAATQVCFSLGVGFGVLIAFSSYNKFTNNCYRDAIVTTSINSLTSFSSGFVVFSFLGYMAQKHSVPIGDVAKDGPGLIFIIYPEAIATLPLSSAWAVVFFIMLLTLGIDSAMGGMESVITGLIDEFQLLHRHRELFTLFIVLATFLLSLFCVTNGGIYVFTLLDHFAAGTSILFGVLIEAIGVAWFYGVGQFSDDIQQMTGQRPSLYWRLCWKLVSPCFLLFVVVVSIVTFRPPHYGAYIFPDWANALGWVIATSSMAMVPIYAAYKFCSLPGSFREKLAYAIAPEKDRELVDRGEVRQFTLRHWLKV
The target of experiment [12] is Insulin receptor (Homo sapiens) (UniProt P06213). The note with it: Rattus norvegicus; Compound concentration 10.0 uM.
Chain of Insulin receptor (Homo sapiens) (P06213 28-758 limits assumed): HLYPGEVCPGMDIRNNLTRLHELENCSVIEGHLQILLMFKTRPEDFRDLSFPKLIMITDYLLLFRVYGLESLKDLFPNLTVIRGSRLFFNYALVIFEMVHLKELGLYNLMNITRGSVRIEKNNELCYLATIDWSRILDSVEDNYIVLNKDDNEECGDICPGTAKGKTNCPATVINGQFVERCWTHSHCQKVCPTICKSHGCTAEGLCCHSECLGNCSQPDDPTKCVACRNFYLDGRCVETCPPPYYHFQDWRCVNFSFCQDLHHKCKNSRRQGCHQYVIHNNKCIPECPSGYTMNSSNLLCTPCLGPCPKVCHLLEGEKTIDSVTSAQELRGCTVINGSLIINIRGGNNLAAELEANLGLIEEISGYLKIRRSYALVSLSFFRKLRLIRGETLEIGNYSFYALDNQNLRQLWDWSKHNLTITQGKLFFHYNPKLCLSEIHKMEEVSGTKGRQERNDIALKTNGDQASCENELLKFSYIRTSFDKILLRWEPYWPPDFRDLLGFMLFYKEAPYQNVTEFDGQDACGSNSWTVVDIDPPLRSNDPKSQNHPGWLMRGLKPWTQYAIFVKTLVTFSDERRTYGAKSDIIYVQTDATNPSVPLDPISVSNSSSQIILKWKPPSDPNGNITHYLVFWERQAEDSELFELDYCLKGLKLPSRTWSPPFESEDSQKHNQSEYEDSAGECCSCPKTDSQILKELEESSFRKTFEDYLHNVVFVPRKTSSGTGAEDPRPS
Chain of Insulin receptor (Homo sapiens) (P06213 763-1382 limits assumed): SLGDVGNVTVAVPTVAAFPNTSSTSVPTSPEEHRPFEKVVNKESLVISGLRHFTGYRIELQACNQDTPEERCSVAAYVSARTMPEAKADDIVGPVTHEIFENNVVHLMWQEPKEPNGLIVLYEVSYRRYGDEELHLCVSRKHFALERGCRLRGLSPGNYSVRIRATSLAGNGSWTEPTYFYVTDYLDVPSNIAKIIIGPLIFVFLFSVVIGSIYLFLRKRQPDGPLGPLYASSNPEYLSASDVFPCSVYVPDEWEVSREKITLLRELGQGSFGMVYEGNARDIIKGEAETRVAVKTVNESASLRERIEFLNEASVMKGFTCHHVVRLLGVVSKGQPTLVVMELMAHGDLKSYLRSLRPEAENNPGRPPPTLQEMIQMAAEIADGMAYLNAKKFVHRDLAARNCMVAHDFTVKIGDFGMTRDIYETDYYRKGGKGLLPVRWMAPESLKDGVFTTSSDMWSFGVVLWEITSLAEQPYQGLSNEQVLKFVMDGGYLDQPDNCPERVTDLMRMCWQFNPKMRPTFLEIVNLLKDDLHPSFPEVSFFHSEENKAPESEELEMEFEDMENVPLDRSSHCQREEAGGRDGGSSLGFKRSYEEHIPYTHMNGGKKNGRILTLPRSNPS
Experiment [13] has as its target Mu-type opioid receptor (Homo sapiens) (UniProt P35372). The note with it: Compound concentration 10.0 uM.
In experiment [14] the target is Androgen receptor (Homo sapiens) (UniProt P10275). The note with it: Compound concentration 10.0 uM.
Experiment [15] addresses 5-hydroxytryptamine receptor 2A (Homo sapiens) (UniProt P28223). The note with it: Compound concentration 10.0 uM.
The target in experiment [16] is D(2) dopamine receptor (Homo sapiens) (UniProt P14416). The note with it: Compound concentration 10.0 uM.
Chain of D(2) dopamine receptor (Homo sapiens) (P14416 whole entry): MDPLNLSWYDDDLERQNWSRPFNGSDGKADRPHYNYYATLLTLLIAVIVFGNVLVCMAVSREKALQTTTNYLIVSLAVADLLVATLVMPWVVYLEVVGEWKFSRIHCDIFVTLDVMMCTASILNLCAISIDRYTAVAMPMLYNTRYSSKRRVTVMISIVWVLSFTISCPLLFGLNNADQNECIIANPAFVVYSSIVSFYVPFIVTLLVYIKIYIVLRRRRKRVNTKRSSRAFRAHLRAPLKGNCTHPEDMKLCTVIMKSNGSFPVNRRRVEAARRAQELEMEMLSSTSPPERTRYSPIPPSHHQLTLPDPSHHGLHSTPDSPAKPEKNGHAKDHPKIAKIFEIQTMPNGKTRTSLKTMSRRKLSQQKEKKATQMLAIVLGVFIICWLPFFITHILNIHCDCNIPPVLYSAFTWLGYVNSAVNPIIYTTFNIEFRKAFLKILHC
Setting [17] is: Compound concentration 0.001 uM.

Chain of Mu-type opioid receptor (Homo sapiens) (P35372 whole entry): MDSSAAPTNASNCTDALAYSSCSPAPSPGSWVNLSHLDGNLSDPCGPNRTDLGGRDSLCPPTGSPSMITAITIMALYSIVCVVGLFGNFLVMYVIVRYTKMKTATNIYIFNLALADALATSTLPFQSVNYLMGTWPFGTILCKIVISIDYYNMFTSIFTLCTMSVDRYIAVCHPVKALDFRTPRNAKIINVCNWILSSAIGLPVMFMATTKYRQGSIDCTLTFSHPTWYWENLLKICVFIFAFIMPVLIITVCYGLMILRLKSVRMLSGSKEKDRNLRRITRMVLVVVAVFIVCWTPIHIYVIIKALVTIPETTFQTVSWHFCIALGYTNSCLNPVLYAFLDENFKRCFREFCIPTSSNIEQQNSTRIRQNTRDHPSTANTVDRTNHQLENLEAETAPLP
Chain of 5-hydroxytryptamine receptor 2B (Homo sapiens) (P41595 whole entry): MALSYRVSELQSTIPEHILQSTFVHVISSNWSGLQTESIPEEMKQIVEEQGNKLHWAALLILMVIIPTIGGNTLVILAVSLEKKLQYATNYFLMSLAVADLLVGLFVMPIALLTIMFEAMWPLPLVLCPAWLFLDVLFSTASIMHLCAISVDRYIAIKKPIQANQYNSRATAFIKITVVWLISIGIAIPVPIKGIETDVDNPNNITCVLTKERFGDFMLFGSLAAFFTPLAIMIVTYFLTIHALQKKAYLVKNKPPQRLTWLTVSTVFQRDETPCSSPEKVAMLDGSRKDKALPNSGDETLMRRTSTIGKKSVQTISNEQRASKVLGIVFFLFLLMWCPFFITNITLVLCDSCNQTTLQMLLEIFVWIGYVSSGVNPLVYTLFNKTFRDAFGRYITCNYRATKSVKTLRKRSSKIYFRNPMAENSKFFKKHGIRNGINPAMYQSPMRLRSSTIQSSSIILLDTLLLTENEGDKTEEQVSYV
Chain of Sigma intracellular receptor 2 (Q5BJF2 whole entry): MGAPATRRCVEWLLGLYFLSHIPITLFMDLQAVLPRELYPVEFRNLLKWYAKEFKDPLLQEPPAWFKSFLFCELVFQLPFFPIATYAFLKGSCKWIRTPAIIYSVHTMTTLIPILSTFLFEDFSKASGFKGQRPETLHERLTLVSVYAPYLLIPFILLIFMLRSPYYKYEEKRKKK

On to `Cc1c(N2CCNCC2)nc2ccc(Br)cc2c1C(=O)NC[C@H](CCC(=O)O)c1ccccc1Cl` [BAY-403], for which, in experiment [1], the inhibition is 16.9%. Further, the Ki in experiment [2] stood at 1.1 µM.
As for `Cc1c(N2CCCC2)nc2ccc(Br)cc2c1C(=O)NC[C@H](CCC(=O)O)c1ccccc1Cl` [BAY-6672], the inhibition in experiment [3] is 10%; in [4] (setting [17]), 7%; in [4] (Compound concentration 0.01 uM), 2%; in experiment [4] (Compound concentration 0.1 uM), 17%; in [4] (Compound concentration 1.0 uM) it was 10%; in experiment [4] (Compound concentration 10.0 uM), 15%. In addition, the inhibition is -5% in [5]; 12% in experiment [6]; 1% in experiment [7]; 10% in experiment [8]; 6% in experiment [9] (setting [17]); 6% in [9] (Compound concentration 0.01 uM). For the same compound, the inhibition in [9] (Compound concentration 0.1 uM) is 18%; in [9] (Compound concentration 1.0 uM), 24%; in [9] (Compound concentration 10.0 uM), 42%; in experiment [10] (setting [17]) it was 3%; in experiment [10] (Compound concentration 0.01 uM), -2%; in experiment [10] (Compound concentration 0.1 uM), -3%. Further, the inhibition in [10] (Compound concentration 1.0 uM) was -0%; in [10] (Compound concentration 10.0 uM), 20%; in [11], 15%; in experiment [12] it was 11%; in experiment [13], 21%; in experiment [14], 3%. The inhibition in [15] is -7%; in [16] it was 3%.
